According to patent US10828281B2, “Non-hydrophobic compounds for use in treating metastasis and/or cartilage defect” (Friedrich-Alexander-Universität Erlangen-Nürnberg, priority 2015, dated 2020):
“Also recorded” adds a separate entry of the source.

Columns and labels:
kidney cells HEK-293 [1] = assay: cellular attachment of kidney cells; type: cell-based, human; settings: 7.8 μM, in vitro, HEK-293, FIG. 5D
Method: (§1) In order to assess whether compounds of the present invention show any adverse effects on normal cells, human fibroblasts and kidney cells were treated with the compounds 1, 2, 3, 4, 5, and 6, respectively, in vitro at a concentration of 7.8 μM in analogy to previous studies (Schmidt, J., et al., Targeting melanoma metastasis and immunosuppression with a new mode of melanoma inhibitory activity (MIA) protein inhibition. PLoS One, 2012. 7(5): p. e37941; Riechers, A., et al., Heterogeneous transition metal-based fluorescence polarization (HTFP) assay for probing protein interactions. Biotechniques, 2009. 47(4): p. 837-44).

MIA-MIA interaction [2] = target: T1, MIA-MIA interaction (Homo sapiens, UniProt Q16674); assay: heterogeneous transition metal-based fluorescence polarization (HTFP) assay of MIA dimerization; type: binding; settings: FIG. 3
T1 sequence (Q16674 25-131): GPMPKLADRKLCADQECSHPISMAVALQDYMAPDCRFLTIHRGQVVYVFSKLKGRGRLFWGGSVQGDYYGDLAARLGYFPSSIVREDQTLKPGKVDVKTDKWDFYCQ
Method: The dimerization of the MIA protein is for example measured by a heterogeneous transition metal-based fluorescence polarization (HTFP) assay, wherein the ratio P/P0 is measured. P is the fluorescence polarization signal of a MIA protein labeled with a transition metal complex in the presence of substrate bound MIA-protein and of a compound to be tested. P0 is the fluorescence polarization signal of free MIA-protein labeled with said luminescent transition metal complex in the absence of substrate bound MIA-protein and in the absence of the compound. In the absence of the compound, usually, the labeled MIA-protein would interact with the substrate bound MIA-protein, which, in turn, would contribute to a reduction in rotational mobility of the labeled MIA-protein, and therefore, the fluorescence polarization signal would increase upon such interaction. If, additionally, a compound is present that interferes with such interaction, no or little dimerization/aggregation occurs and no or little increase in fluorescence polarization signal would be detected. The smaller or even more negative P/P0 is, the stronger such interference with dimer formation and aggregation is, and the better such compound prevents or breaks up dimerization/aggregation of MIA protein. In an alternative embodiment, binding of the compound to MIA protein is determined by NMR, e.g., heteronuclear NMR, e.g., ^15N-^1H-HSQC-NMR.
All listed compounds that were screened for their ability to interfere with the MIA-MIA interaction (Table 1) in a heterogeneous transition metal-based fluorescence polarization (HTFP) assay previously developed (Riechers, A., et al., Heterogeneous transition metal-based fluorescence polarization (HTFP) assay for probing protein interactions. Biotechniques, 2009. 47(4): p. 837-44). […] The molecular structures of the compounds showing interference with the MIA-MIA interaction in the HTFP assay are shown in Table 1.

human fibroblasts [3] = assay: proliferation of human fibroblasts; type: cell-based; settings: 7.8 μM, in vitro, FIG. 5A
Method: as §1

kidney cells HEK-293 [4] = assay: proliferation of kidney cells; type: cell-based, human; settings: 7.8 μM, in vitro, HEK-293, FIG. 5C
Method: as §1

[5] = test system: human melanoma cell line Mel Im; assay: proliferation of melanoma cell line Mel Im; type: cell-based; settings: FIG. 6
human fibroblasts [6] = assay: cellular attachment of human fibroblasts; type: cell-based; settings: 7.8 μM, in vitro, FIG. 5B
Method: as §1

[7] = test system: human Mel-Im melanoma cells; assay: Boyden chamber migration assay; type: cell-based; settings: compound 1 μM, MIA 200 ng/mL, FIG. 4
Method: The melanoma cell line Mel-Im, established from a human metastatic bioptic sample (generous gift from Dr. Johnson, University of Munich, Germany) was used for the Boyden chamber migration experiments. All cells were maintained in DMEM (PAA, Pasching, Germany) supplemented with penicillin (400 U/mL), streptomycin (50 μg/mL), L-glutamine (300 μg/mL) and 10% fetal calf serum (Pan Biotech GmbH, Aidenbach, Germany) and split in a 1:6 ratio every three days. Migration assays were performed in Boyden Chambers containing polycarbonate filters with […] (Neuro Probe, Gaithersburg, Md., USA) essentially as described. MIA was added to the cell suspension at a final concentration of 200 ng/mL. Selected compounds were used at a final concentration of 1 μM. Experiments were carried out in triplicates and repeated at least three times.

MIA-MIA interaction [8] = target: T1, MIA-MIA interaction; settings: disclosed in WO 2011/113604; cited from earlier work

| effect on cellular attachment of kidney cells (kidney cells HEK-293 [1]) | fluorescence polarization of Ru-(bpy)3 labelled MIA (interference with the MIA-MIA interaction) (MIA-MIA interaction [2]) | effect on cellular attachment of human fibroblasts (human fibroblasts [6]) | Molecule | effect on proliferation of human fibroblasts (human fibroblasts [3]) | effect on proliferation of kidney cells (kidney cells HEK-293 [4]) | proliferation of the human melanoma cell line Mel Im after treatment [5] | MIA activity on melanoma cell migration [7] | blocking of the MIA-MIA interaction (MIA-MIA interaction [8]) |
| --- | --- | --- | --- | --- | --- | --- | --- | --- |
| no negative effects | significant decreases | no negative effects | CCC(C)N1CC(=O)C(c2nc3ccccc3[nH]2)=C1N (stereo not shown) [Compound 1, 5-amino-4-(1H-1,3-benzodiazol-2-yl)-1-(butan-2-yl)-2,3-dihydro-1H-pyrrol-3-one] | no negative effects | no negative effects | significant decrease; also recorded: inhibition | reduction; also recorded: inhibition | – |
| no negative effects | significant decreases | no negative effects | CCCCCNC(=O)Cc1cc(=O)[nH]c(=O)[nH]1 [Compound 3, 2-(2,6-dioxo-1,2,3,6-tetrahydropyrimidin-4-yl)-N-Pentylacetamide] | no negative effects | no negative effects | could not be found | reduction; also recorded: inhibition | – |
| no negative effects | significant decreases | no negative effects | CC(=O)c1c(C)cn(CC(O)CN2CCNCC2)c1C (stereo not shown) [Compound 4, 1-{1-[2-hydroxy-3-(piperazin-1-yl)propyl]-2,4-dimethyl-1H-pyrrol-3-yl}ethan-1-one] | no negative effects | no negative effects | could not be found | reduction | – |
| no negative effects | significant decreases | no negative effects | CCCCNC(=O)c1c(O)nc2c(C)cccn2c1=O [Compound 6, N-butyl-2-hydroxy-9-methyl-4-oxo-4H-pyrido[1,2-a]pyrimidine-3-carboxamide] | no negative effects | no negative effects | could not be found | reduction | – |
| – | – | – | AR71: a peptide having the amino acid sequence FHWRYPLPLPGQ (SEQ ID NO:1) | – | – | – | – | able to block the MIA-MIA interaction |

| Molecule | effect on cellular attachment of kidney cells (kidney cells HEK-293 [1]) | fluorescence polarization of Ru-(bpy)3 labelled MIA (interference with the MIA-MIA interaction) (MIA-MIA interaction [2]) | effect on cellular attachment of human fibroblasts (human fibroblasts [6]) | effect on proliferation of human fibroblasts (human fibroblasts [3]) | effect on proliferation of kidney cells (kidney cells HEK-293 [4]) | proliferation of the human melanoma cell line Mel Im after treatment [5] | MIA activity on melanoma cell migration [7] | blocking of the MIA-MIA interaction (MIA-MIA interaction [8]) |
| --- | --- | --- | --- | --- | --- | --- | --- | --- |
| CS(=O)(=O)NCC#CCN1CCc2ccccc2C1 [Compound 2, N-[4-(1,2,3,4-tetrahydroisoquinolin-2-yl)but-2-yn-1-yl]methanesulfonamide] | no negative effects | significant decreases | no negative effects | no negative effects | no negative effects | could not be found | reduction; also recorded: inhibition | – |
| COc1ccc2[nH]c(CN3CCNCC3)nc2c1 [Compound 5, 5-methoxy-2-(piperazin-1-ylmethyl)-1H-1,3-Benzodiazole] | no negative effects | significant decreases | no negative effects | no negative effects | no negative effects | could not be found | reduction | – |
